The source of these data is patent publication US7345078B2, “NF-κB inhibitors and uses thereof” (The Board of Trustees of Michigan State University, priority 2002, dated 2008).

The test system of test [1] is Staphylococcus aureus. Put plainly: standardized disk diffusion method (zone diameter / MIC). It is filed as cell-based. Particulars: at the amount printed in the same cell. Here is the method: (§1) Compounds 4, 6, and 7 were tested for the inhibition of bacteria. A total of 9 bacterial strains were screened. The following Gram-negative and Gram-positive bacteria were included: Staphylococcus aureus, Enterobacter aerogenes, Esherichia coli, Klebsiella pneumonia, Pseudomonas aeruginosa, Serratia marcescens, Bacillus cerius, Bacillus subtillus and micrococcus luteus. Bacterial isolates were removed from storage, streaked on to nutrient agar plates and incubated for 18-24 hours at 35° C. A working bacterial suspension was prepared by suspending 3-5 isolated colonies in 5 mL saline solution. The turbidity of this suspension was carefully adjusted photometrically to equal that of a 0.5 McFarland standard. The zone diameters were determined by a standardized disk diffusion method using cation-supplemented Mueller-Hinton agar according to NCCLS guidelines (National Committee for Clinical Laboratory Standards. Methods for dilution Antimicrobial Susceptibility Tests for Bacteria that Grow Aerobically. Fifth Edition: Approved Standard M7-A5. Wayne, Pa.: NCCLS (2000)). Minimum inhibitory concentrations (MICs) were considered the lowest concentration that gave a clear zone of inhibition. The inoculated agar plates were incubated for 16-20 hours at 35° C. in ambient air. The diameters of the zones were read in millimeters.
A general note: In agar diffusion tests the substance spreads into inoculated agar from a disc or well.

The subject of test [2] is Micrococcus luteus. The description is as above. Particulars: at the amount printed in the same cell. The class given is cell-based. Here is the method:
as §1

In test [3] the test system is Bacillus subtillus. Described as above. It is filed as cell-based. Particulars: at the amount printed in the same cell. Here is the method:
as §1

In test [4] the test system is Bacillus cereus. The test is described as above. Particulars: at the amount printed in the same cell. It is filed as cell-based. Here is the method:
as §1

Test [5] concerns the target T1, NF-κB (Homo sapiens, UniProt P19838+Q04206). The test is described as follows: IC50 values in Mammalian Jurkat cells Leukemia T cells. It is filed as cell-based. Set-up: endogenous in cells; host or cells: Jurkat leukemia T-cells, clone E6-1 (ATCC), PMA-stimulated; nuclear extract. Particulars: concentration at which 50% of the protein/enzyme is inhibited in cells. The method, then: (§2) All compounds were evaluated for their potential anti-inflammatory activity by examining the activity of NF-κB in vitro in nuclear extracts using the procedure from Breton and Charbot-Fletcher (Breton et al., J. Pharmacol. Exp. Ther. 282 459-466 (1997)). […] The Jurkat cells (1×10^7 cells/mL) are subsequently treated with various concentrations of imidazoline for 30 minutes at 37° C. followed by PMA stimulation (5.0 ng/mL) for an additional 5 hours. Nuclear extracts are incubated for 20 minutes with a double stranded Cy3 labeled NF-κB consensus oligonucleotide, 5′-[…]-3′ (SEQ ID NO:1) at room temperature. The crude mixture is loaded on a 5% non-denaturing polyacrylamide gel prepared in 1×Tris borate/EDTA buffer and electrophoresed at 200V for 2 hours. After electrophoresis the gel is analyzed using a phosphorimager (Biorad FX PLUS) for detection of the NF-κB-DNA binding.
IC50 values in Mammalian Jurkat cells Leukemia T cells: IC50 value is defined as the concentration of compounds at which 50% of the protein/enzyme is inhibited in cells (Table 3).

The subject of test [6] is RIF-1 murine tumor. Put plainly: RIF-1 murine model of tumor growth delay. It is filed as in vivo, mice. Here is the method: Tumor cells were injected, bilaterally, into the backs of mice. When tumors reached 100 mm^3, the mice were treated with an intraperitoneal injection of the compound. Tumor volumes were measured 3 times a week until they reached 4 times the size they were on the first treatment day. Data is recorded as “Days to 4×’ or ratio of ‘Days to 4×” of the treated over untreated controls.

The target in test [7] is T1, NF-κB. The test is described as follows: EMSA of nuclear NF-κB-DNA binding in nuclear extracts of PMA-stimulated Jurkat leukemia T-cells. The class given is cell-based. The arrangement: endogenous in cells; host or cells: Jurkat leukemia T-cells, clone E6-1 (ATCC), PMA-stimulated; nuclear extract. Particulars: compound 1.0 μM. Here is the method:
as §2
EMSA assay for NF-κB-DNA binding was as follows. […] The Jurkat cells (1×10^6 cells/mL) were subsequently treated with various concentrations of the compounds for 30 minutes at 37° C. and 5% CO2 followed by PMA (50 ng/mL) and PHA ([…]) stimulation for an additional 30 minutes. The cells were harvested by centrifugation, washed in ice cold PBS and the nuclear extracts were prepared as previously described (Dignam, et al., Nucl. Acids Res 11: 1475-1489 (1983)). The protein concentration of the extracts was determined according to the Method of Bradford (1976) with BioRad reagents. Nuclear extracts are incubated for 20 minutes at room temperature with a double stranded Cy3 labeled NF-kB consensus oligonucleotide, 5′-[…] CCAGGC-3′ (SEQ ID NO:1). The binding mixture ([…]) contained 10 mM HEPES-NaOH pH 7.9, 4 mM tris-HCl, pH 7.9, 6.0 mM KCl, 1 mM EDTA, 1 mM DTT, 10% glycerol, 0.3 mg/mL bovide serum albumin and […] of poly (dI.dC). The binding mixtures ([…] of nuclear extract protein) were incubated for 20 minutes at room temrperature with 0.16 pmol of Cy3 labeled oligonucleotide. The mixture was loaded on a 4% polyacrylamide gel prepared in 1× tris borate/EDTA buffer and was electrophoresed at 200 V for 20 minutes. After electrophoresis the gel was analyzed using a phosphorimager (Biorad FX plus) for detection of the NF-kB—DNA binding.
(In general: Mobility shift assays separate free from complexed probe on a gel.)

T1 sequence (Q04206 whole entry): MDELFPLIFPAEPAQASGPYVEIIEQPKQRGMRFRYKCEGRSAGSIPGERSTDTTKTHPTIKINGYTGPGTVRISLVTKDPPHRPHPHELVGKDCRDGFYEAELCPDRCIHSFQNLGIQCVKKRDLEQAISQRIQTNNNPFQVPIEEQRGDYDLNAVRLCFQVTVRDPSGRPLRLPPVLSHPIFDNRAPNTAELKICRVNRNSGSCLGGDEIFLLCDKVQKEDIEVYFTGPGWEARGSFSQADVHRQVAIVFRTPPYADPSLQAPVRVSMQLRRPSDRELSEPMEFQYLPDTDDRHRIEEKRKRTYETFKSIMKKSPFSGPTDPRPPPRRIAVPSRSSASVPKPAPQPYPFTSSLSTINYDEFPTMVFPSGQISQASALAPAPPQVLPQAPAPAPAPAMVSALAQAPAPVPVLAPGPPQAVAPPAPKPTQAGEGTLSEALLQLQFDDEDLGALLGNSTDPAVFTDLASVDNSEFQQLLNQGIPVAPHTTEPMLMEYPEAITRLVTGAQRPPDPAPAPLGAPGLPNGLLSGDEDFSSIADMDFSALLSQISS
T1 sequence (P19838 1-433 limits assumed): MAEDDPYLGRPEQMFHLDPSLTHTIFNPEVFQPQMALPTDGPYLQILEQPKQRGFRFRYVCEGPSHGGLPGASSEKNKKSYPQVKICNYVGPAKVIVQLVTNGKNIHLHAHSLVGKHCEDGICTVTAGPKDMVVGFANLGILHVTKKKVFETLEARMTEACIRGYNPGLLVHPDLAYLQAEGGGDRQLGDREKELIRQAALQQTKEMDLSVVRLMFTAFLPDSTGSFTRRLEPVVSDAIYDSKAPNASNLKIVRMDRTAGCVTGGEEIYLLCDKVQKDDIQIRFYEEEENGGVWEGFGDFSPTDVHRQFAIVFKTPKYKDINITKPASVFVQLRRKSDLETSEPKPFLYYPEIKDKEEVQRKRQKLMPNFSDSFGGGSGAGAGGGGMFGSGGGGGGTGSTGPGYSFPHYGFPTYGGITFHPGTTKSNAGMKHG

Turning to `O=C(O)[C@@]1(c2ccccc2)N=C(c2ccccc2)N(Cc2ccccc2)[C@H]1c1ccccc1` (racemic) [Compound 4, Dl-(3S,4S)-1-Benzyl-2,4,5-triphenyl-4,5-dihydro-1H-imidazole-4-carboxylic acid], the “zone of inhibition diameter” value is given as 12 mm in test [1], 12 mm in test [2], 13 mm in test [3] and 11 mm in test [4]. In addition, in test [5], the IC50 (as a rule, the midpoint of a concentration-inhibition curve) came to 73 nM. The “Days Delay (tumor growth delay)” value in test [6] (IP, imidazoline 100 mg/kg, cis-platin 4 mg/kg, camptothecin 6 mg/kg) is -0.56 days. Besides, in test [6] (IP, imidazoline 100 mg/kg, cis-platin 4 mg/kg, camptothecin 6 mg/kg, untreated 7.0), the “Median (days to 4x)” value is given as 6.5 days. Besides, the “Days to 4x (Ave ±SE)” value in test [6] (IP, imidazoline 100 mg/kg, cis-platin 4 mg/kg, camptothecin 6 mg/kg, untreated 7.3 ± 0.6) is recorded as 6.4 ± 0.2 days. In addition, the “tumors < 4x at Day 22” value in test [6] (cis-platin 4 mg/kg + compound 4 100 mg/kg IP) is 4 of the 8. In addition, in test [6] (combinational treatment with camptothecin (CPT), RIF-1 tumors in mice), the chemopotentiation of camptothecin entry was “No significant chemopotentiation”. For the same molecule, the chemopotentiation of cis-platin result in test [6] (combinational treatment with cis-platin (CDDP), RIF-1 tumors in mice) was “considerable chemopotentiation”. Further, in test [7], at 1 µM the inhibition was 65%.
